# According to patent US20190216786A1, “USE OF 2-{4-[(4-{[1-CYCLOPROPYL-3-TETRAHYDRO-2H-PYRAN-4-yl)-1H-PYRAZOL-4yl]OXY} PYRIDINE-2-yl)AMINO]PYRIDIN-2-yl}PROPAN-2-OL IN THE TREATMENT OF CANCER” (Eli Lilly and Company, priority 2016, published 2019):
# Columns and labels:
# [1] = 3-month intermittent-dosing toxicology study in rats; type: in vivo
# Description: (§1) Due to the cardiac effects observed with daily dosing in preclinical models, intermittent-dosing toxicology studies administering 2-{4-[(4-{[1-cyclopropyl-3-(tetrahydro-2H-pyran-4-yl)-1H-pyrazol-4-yl]oxy}pyridin-2-yl)amino]pyridin-2-yl}propan-2-ol 4-methylbenzenesulfonate for 3 months in dogs and rats were completed to support clinical dosing. The two dosing schedules evaluated were 2 weeks of daily dosing followed by 2 weeks of no dosing (2 weeks on/2 weeks off) or 3 weeks of daily dosing followed by 1 week of no-dosing (3 weeks on/1 week off). […] Margins of safety based on the NOAELs for the 3-month studies support the proposed clinical dose range of 10 to 100 mg in patients.
# in vivo = assay: in vivo; parameters: species or system dogs; conditions: dog
# Description: as §1
smiles,measurement,setting,value
CC(C)(O)c1cc(Nc2cc(Oc3cn(C4CC4)nc3C3CCOCC3)ccn2)ccn1 [2-{4-[(4-{[1-cyclopropyl-3-(tetrahydro-2H-pyran-4-yl)-1H-pyrazol-4-yl]oxy}pyridin-2-yl)amino]pyridin-2-yl}propan-2-ol 4-methylbenzenesulfonate],cardiac effects,"[1]; rat, 12 mg/kg, 3 cycles of the 3-week-on/1-week-off schedule",limited to aortic inflammation and degeneration in a single female animal
same,"compound-related, adverse effects","[1]; rats, 3 months, 2-week on/2-week-off dosing schedule","no compound-related, adverse effects detected"
same,NOAEL at 3 months,in vivo,7.5 mg/kg
same,adverse effects,in vivo,no adverse effects
